From US8536115B2, “Compositions and methods for modulating AMPA receptor-mediated excitotoxicity” (Centre for Addiction and Mental Health, priority 2006, dated 2013)
No end group written: not given here.

Tests used:
GAPDH:AMPAR complex [1] = biological target: T1, GAPDH:AMPAR complex (Homo sapiens, UniProt P04406); test: Co-immunoprecipitation of GAPDH with GluR2 in HEK-293T cells expressing GluR1/GluR2; type: cell-based
T1 construct: It should be noted that HEK293T cells expresses endogenous GAPDH; expressed in transfected cells; host or cells: HEK-293T (GluR1 and GluR2 transfected; GAPDH endogenous)
T1 sequence (P04406 2-335 limits assumed, one chain of several): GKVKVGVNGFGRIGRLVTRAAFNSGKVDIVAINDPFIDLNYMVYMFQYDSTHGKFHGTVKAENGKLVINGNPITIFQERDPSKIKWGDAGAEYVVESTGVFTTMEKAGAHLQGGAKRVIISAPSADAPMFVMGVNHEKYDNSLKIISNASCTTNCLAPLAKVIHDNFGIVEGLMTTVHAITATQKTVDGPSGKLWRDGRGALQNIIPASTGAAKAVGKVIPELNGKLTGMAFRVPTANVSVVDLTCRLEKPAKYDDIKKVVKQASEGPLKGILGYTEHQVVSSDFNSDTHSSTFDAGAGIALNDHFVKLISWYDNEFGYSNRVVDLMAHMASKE
Experimental: (§1) Protein affinity purification, in vitro binding, co-immunoprecipitation and Western blot analyses were performed as previously described (73, 79). Antibodies used for immunoprecipitation, Western blots and cell surface ELISA assays included GAPDH (polyclonal from Abcam, monoclonal from Chemicon), GluR2 (Western blots: Chemicon; immunoprecipitation: Upstate), HA (monoclonal, Covance), α-tubulin (monoclonal, Sigma-Aldrich), LaminB1 (Zymed Laboratories).

[2] = test system: HEK-293T cells expressing NR1-1a/2A NMDA receptor; test: NR1-1a/2A NMDA receptor-mediated cell death in HEK-293T cells; type: cell-based; conditions: depletion of calcium with 5 mM EGTA; n=9
[3] = test system: HEK-293T cells expressing GluR1/2; test: Quantification of AMPAR-mediated cell death (propidium iodide fluorescence) in HEK-293T cells expressing GluR1/2; type: cell-based; conditions: for attenuation/inhibition of AMPAR-mediated (glutamate-induced) cell death: pretreatment 10 μM, 1 hr, 300 μM glutamate, 25 μM CTZ, 24 hr, n=9
Experimental: (§2) Cells were allowed to recover for 24 hours at 37° C. To quantify AMPA-mediated cell death, culture medium was replaced by extracellular solution containing 50 μg/ml of propidium iodide (PI) (Invitrogen). After 30 minutes incubation at 37° C., fluorescence intensity in each well was measured with a plate reader (Victor3; PerkinElmer). […] Primary hippocampal neurons were exposed to 100 μM KA/25 μM cyclothiazide in medium at 37° C. for 1 hour, at 37° C.

[4] = test system: HEK-293T cells expressing GluR1/3; test: GluR1/3 AMPAR-mediated cell death in HEK-293T cells; type: cell-based; conditions: pre-incubation; HEK-293T expressing GluR1/3
Experimental: as §2

p53 = biological target: T2, p53 (Rattus norvegicus, UniProt P10361); test: Affinity pull down of p53 from rat hippocampal extracts by GST-GAPDH fragments; type: binding
T2 construct: from tissue; host or cells: solubilized nuclear proteins / extracts of rat hippocampus
T2 sequence (P10361 whole entry, the tested form may be a part): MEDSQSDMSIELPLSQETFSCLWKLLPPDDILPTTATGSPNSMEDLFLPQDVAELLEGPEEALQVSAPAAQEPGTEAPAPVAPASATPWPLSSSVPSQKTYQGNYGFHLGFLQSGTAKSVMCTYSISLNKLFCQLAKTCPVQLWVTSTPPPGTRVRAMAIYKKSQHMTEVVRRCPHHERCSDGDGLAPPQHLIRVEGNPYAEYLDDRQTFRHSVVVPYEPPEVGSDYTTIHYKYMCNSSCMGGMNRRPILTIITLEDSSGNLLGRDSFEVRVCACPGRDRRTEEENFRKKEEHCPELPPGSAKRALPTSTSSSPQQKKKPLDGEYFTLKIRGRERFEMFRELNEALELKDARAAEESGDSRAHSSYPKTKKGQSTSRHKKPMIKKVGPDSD
Experimental: as §1
(§3) Thus, we tested whether GluR2NT and GAPDH can interact with p53 using affinity “pull down” purification experiments. […] To identify the p53 interacting domain on GAPDH, GST-fusion proteins encoding truncated fragments of GAPDH were constructed and used in affinity purification assays (FIG. 24D). […] Furthermore, we confirmed the essential role of I221-E250 in maintaining GAPDH-p53 coupling.

GAPDH = biological target: T3, GAPDH (Rattus norvegicus, UniProt P04797); test: Affinity purification of GAPDH from rat hippocampal extracts by GST-fusion proteins; type: binding; conditions: solubilized rat hippocampal extracts
T3 construct: from tissue; host or cells: detergent extracts of rat hippocampus
T3 sequence (P04797 whole entry, the tested form may be a part): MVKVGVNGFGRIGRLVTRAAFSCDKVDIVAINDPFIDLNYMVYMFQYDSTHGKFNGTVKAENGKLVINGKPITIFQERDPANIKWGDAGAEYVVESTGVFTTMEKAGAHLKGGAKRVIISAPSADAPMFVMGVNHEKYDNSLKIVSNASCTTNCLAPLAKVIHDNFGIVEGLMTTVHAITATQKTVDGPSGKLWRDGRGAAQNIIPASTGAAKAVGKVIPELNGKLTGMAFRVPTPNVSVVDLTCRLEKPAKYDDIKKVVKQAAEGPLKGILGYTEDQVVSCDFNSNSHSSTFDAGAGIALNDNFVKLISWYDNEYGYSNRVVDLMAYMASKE
Experimental: as §1
We then further divided the GluR2 NTa3 region into 30 amino acids GST-fusion proteins and mini-genes (GluR2 NTa3-1: H122-E141, 20 a.a; GluR2 NT1-3-2 Y142-K172, 30 a.a) to delineate the region of GluR2 NTa3 involved in the interactions (FIG. 6A). GluR2 NT1-3-2, but not GluR2 NTa3-1 or GST alone, precipitated GAPDH in rat hippocampal extracts in affinity purification assays (FIG. 6B). This was also supported by a blot overlay experiment where [35S]-GAPDH probe bound with GluR2 NT1-3-2, but not GluR2 NTa3-1 or GST alone (FIG. 6C).

[35S]-GAPDH = biological target: T4, [35S]-GAPDH (Homo sapiens, UniProt P04406); test: In vitro binding (blot overlay) with [35S]-GAPDH probe; conditions: in vitro binding assay
T4 construct: made in house
T4 sequence (P04406 whole entry): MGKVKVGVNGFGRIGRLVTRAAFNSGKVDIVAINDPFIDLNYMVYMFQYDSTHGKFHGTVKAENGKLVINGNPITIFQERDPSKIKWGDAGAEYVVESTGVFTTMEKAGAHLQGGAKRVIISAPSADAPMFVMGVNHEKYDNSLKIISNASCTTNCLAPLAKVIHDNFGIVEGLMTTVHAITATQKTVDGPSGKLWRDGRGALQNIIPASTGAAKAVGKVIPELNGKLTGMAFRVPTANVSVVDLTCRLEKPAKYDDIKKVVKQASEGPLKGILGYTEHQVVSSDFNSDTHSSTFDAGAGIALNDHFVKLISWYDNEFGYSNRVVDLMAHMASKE
Experimental: as §1
In order to delineate the region of the GluR2NT involved in the interaction with the GAPDH, three GluR2NT GST-fusion proteins [GluR2 NTa V22-S271, (250 a.a), GluR2 NTb K272-421, (150 a.a), GluR2 NTc L422-E545, (124 a.a)] were constructed (FIG. 4A). In affinity purification assays, GluR2 NTa, but not GluR2 NTb, GluR2 NTc or GST alone precipitated GAPDH in rat hippocampal brain extract (FIG. 4B). […] To clarify the nature of the interaction, blot overlay experiments were performed, which provided in vitro evidence for a direct interaction. GluR2 NTa, GluR2 NTb and GluR2 NTc were probed with in vitro translated [35S]-methionine labelled peptides encoding GAPDH ([35S]-GAPDH). The [35S]-GAPDH probe bound with GluR2 NTa, but not GluR2 NTb or GluR2 NTc. […]

hippocampal CA1 neurons = test: Four vessel occlusion ischemia model, cresyl violet-stained nuclei in CA1; type: in vivo, rat; conditions: 1 μM, 0.5 μl into hippocampus, 5-day recirculation
Experimental: In this study, a cannula (small diameter stainless steel tubes) was implanted in the animal one week before surgery. This cannula was used to deliver the peptide GluR2 NT1-3-2 (1 μM, 0.5 μl) into hippocampus where GAPDH-GluR2 interaction is considered to occur. On the surgery day, the four vessel occlusion ischemia model was performed in order to induce ischemia. Animals were treated with the peptide GluR2 NT1-3-2 either before (30 min) or after (2 hour) the induction of ischemia to examine the neuroprotective effect of the peptide. After a 5-day recirculation period, animals were decapitated, the brains were removed and dissected to harvest the hippocampus. Cresyl violet was used to stain alive neurons in hippocampus region of each animal. Cresyl violet-stained nuclei were observed by microscope and total number of stained nuclei in CA 1 region was summarized and normalized to the sham-operated group.

[5] = test system: HEK-293T cells cotransfected with GluR1/GluR2; test: Nuclear translocation of GAPDH and GluR2 in HEK-293T cells (nuclei, Western blot); type: cell-based; conditions: peptide 10 μM, 1 hr; glutamate 100 μM, 30 min
Experimental: as §1
(§4) Nuclei isolation was prepared as described previously (55, 66). Briefly, cells were gently rinsed twice with ice-cold PBS. And scraped in 1 ml of solution 1 (10 mM Tris-HCl, pH7.4, 100 mM NaCl2, 2.5 mM MgCl2, 0.5% NP-40, proteinase inhibitor and PMSF) per 10-cm plate. Then cells were homogenized by four passages through a 25-gauge needle and spin at 3000 g briefly. Pellets containing nuclei were subsequently utilized in biochemical assays.

GAPDH:AMPAR complex [6] = biological target: T5, GAPDH:AMPAR complex (Rattus norvegicus, UniProt P04797); test: Co-immunoprecipitation of GAPDH with GluR2 in primary cultures of rat hippocampal neurons; type: cell-based; conditions: preincubation 10 μM, 1 hour; 100 μM kainic acid, 30 min
T5 construct: endogenous in cells; host or cells: primary hippocampal neurons from fetal Wistar rats
T5 sequence (P04797 whole entry, one chain of several): as the sequence (P04797 whole entry, the tested form may be a part) above
Experimental: (§5) Primary cultures from hippocampus were prepared from fetal Wistar rats (embryonic day 17-19) on Cell^+ (Sarstedt) culture dishes as previously described (73). The cultures were used for experiments on 12-15 d after plating. Hippocampal cultures were pretreated with GluR2 NT1-3-2 peptides before kainic acid treatment.
as §1

hippocampal neurons = test: Nuclear translocation of GAPDH and GluR2 in hippocampal neurons; type: cell-based, rat; conditions: peptide 10 μM, 1 hr; 100 μM KA, 10 μM MK-801, 2 μM nimodipine, 30 min
Experimental: as §5, §1, §4

[7] = test system: transfected HEK-293T cells; test: Cell-ELISA of cell surface GluR2 and GAPDH in transfected HEK-293T cells; type: cell-based; conditions: GluR1/GluR2; glutamate
Experimental: Cell-ELISA assays (colorimetric assays) were done essentially as previously described (82). […] Cells were incubated in 1% (W/V) glycine for 10 minutes at 4° C. to recover from the fixing. Cells were then incubated with a monoclonal antibody against specific antibodies for the purpose of labeling the receptors or proteins on the cell surface under non-permeabilized conditions or the entire receptor pool under permeabilized conditions. After incubation with corresponding HRP-conjugated secondary antibodies (Sigma-Aldrich), the HRP substrate o-phenylenediamine (Sigma-Aldrich Co) was added to produce a color reaction that was stopped with the equal volume of 3N HCl. Fluorescence intensity in each well was measured with a plate reader (Victor3; PerkinElmer). […] Afterwards, cells were scrapped from the dishes, and the protein concentration of each dish was measured. The results of cell surface expression of receptors or proteins were calibrated by the protein concentration of each well. Analysis was done using at least 9 separate wells in each group.

GAPDH-p53 interaction = test: Co-immunoprecipitation of GAPDH with p53; type: cell-based; conditions: extracted nuclear proteins; AMPAR activation
Experimental: as §1, §4, §3

[8] = test system: cultured rat hippocampal neurons; test: AMPAR-mediated cell death (PI fluorescence) in cultured rat hippocampal neurons; type: cell-based; conditions: 100 μM KA, 10 μM MK-801, 2 μM nimodipine, 1 hr; n=9
Experimental: as §5
Cells were allowed to recover for 24 hours at 37° C. To quantify AMPA-mediated cell death, culture medium was replaced by extracellular solution containing 50 μg/ml of propidium iodide (PI) (Invitrogen). After 30 minutes incubation at 37° C., fluorescence intensity in each well was measured with a plate reader (Victor3; PerkinElmer). […]
To examine the GAPDH:AMPAR interactions in a relevant cellular milieu, primary cultures of rat hippocampal neurons were utilized in parallel experiments. We have previously shown in FIG. 21C that pre-incubating hippocampal neurons with the GluR2 NT1-3-2 peptide could disrupt the GAPDH-GluR2 interaction that was promoted by AMPAR activation. We subsequently examined if disruption of this interaction in hippocampal neurons could rescue cells from AMPAR-mediated cell death. AMPAR-mediated cell death was induced by pretreating neurons with kainic acid (KA; 100 μM, 1 hour) in the presence of NMDA receptor and Ca^2+ channel antagonists (10 μM MK-801 and 2 μM nimodipine, respectively).

[9] = test system: nontransfected HEK-293T cells; test: Cell death in HEK-293T cells in the absence of GluR1/GluR2 co-expression; type: cell-based
Experimental: as §2

Molecule: N#Cc1cc2c(cc1[N+](=O)[O-])=NC(=O)C(=O)N=2 [CNQX, 6-cyano-7-nitroquinoxaline-2,3-dione]
- association between GAPDH and GluR2 with antagonist (GAPDH:AMPAR complex [1]; glutamate-activated AMPA receptor): decreased

Molecule: O=C(O)CN(CCOCCOCCN(CC(=O)O)CC(=O)O)CC(=O)O [EGTA, reference compound]
- inhibition of NR1-1a/2A NMDA receptor-mediated cell death [2]: 38±3.6%
- GluR1/GluR2 AMPAR-mediated cell death on depletion of calcium ([3]; 5 mM EGTA): remained intact

Molecule: N[C@@H](CCC(=O)O)C(=O)O [Glutamate]
- CO-IP of GAPDH by the GluR2 subunit antibody on agonist activation (GAPDH:AMPAR complex [1]): increase

Molecule: Cc1ccc(-c2cn3c4c(sc3n2)CCCC4)cc1 [cyclic PFT-α, reference compound]
- inhibition of GluR1/3 AMPAR-mediated (glutamate-induced) cell death [4]: failed to inhibit
- attenuation/inhibition of AMPAR-mediated (glutamate-induced) cell death [3]: 49.8±8.3%

Molecule: GST-GAPDH(2-2-1-1): GST-fusion protein encoding truncated GAPDH fragment I221-E250
- pull down of p53 (p53): specifically pulled down

Molecule: GST-GluR2 NT1-3-2: GST-fusion protein of GluR2 NT1-3-2 Y142-K172 (YYQWDKFAYLYDSDRGLSTLQAVLDSAAEKK; not fully specified (N-terminus); also: GST fusion partner)
- affinity precipitation of GAPDH (Western blot) (GAPDH): presence of GAPDH
- binding of [35S]-GAPDH probe ([35S]-GAPDH): bound

Molecule: GluR2 NT1-3-2 peptide: polypeptide of the GluR2 NT1-3-2 (Y142-K172) amino acid sequence (SEQ ID NO:1) (YYQWDKFAYLYDSDRGLSTLQAVLDSAAEKK; Y142-K172 of GluR2 subunit receptor from homo sapiens)
- agonist-induced increase in GAPDH:AMPAR complex formation (GAPDH:AMPAR complex [1]; preincubation 10 μM, 1 hour, 100 μM glutamate, 30 min): significantly inhibited
- neurons rescued from cell death, peptide treatment before ischemia (hippocampal CA1 neurons; 30 min before ischemia): 18.2%
- neurons rescued from cell death, peptide treatment after ischemia (hippocampal CA1 neurons; 2 hour after ischemia): 13.2%
- nuclear translocation of GAPDH and GluR2 [5]: blocked
- inhibition of GluR1/3 AMPAR-mediated (glutamate-induced) cell death [4]: failed to inhibit
- agonist-induced increase in GAPDH:AMPAR complex formation (GAPDH:AMPAR complex [6]): significantly inhibited
- nuclear translocation of GAPDH and GluR2 (hippocampal neurons): blocked
- agonist-induced GAPDH internalization after preincubation of peptide [7]: abolished
- GAPDH-p53 interaction after peptide pretreatment (GAPDH-p53 interaction): inhibited
- inhibition of AMPAR-mediated cell death [8]: 47.6±3.3%
- effect of the peptide itself on cell death in the absence of glutamate treatment ([3]; GluR1/2 transfected cells, no glutamate): no effect
- attenuation/inhibition of AMPAR-mediated (glutamate-induced) cell death [3]: 56±1.6%
- effect of the peptide itself in the absence of GluR1/GluR2 co-expression [9]: no effect
